Columns and labels:
δ-opioid receptor = target: T1, δ-opioid receptor (Rattus norvegicus, UniProt P33533); assay: Rat brain δ-opioid receptor binding assay; settings: rat forebrain particulate preparation, [3H]DPDPE, 25° C.
T1 construct: from tissue; host or cells: rat forebrain homogenate (Wistar rat)

μ-opioid receptor = target: T2, μ-opioid receptor (Rattus norvegicus, UniProt P33535); assay: Rat brain μ-opioid receptor binding assay; settings: rat forebrain particulate preparation, [3H]DAMGO, 25° C.
T2 construct: from tissue; host or cells: rat forebrain homogenate (Wistar rat)

[1] = tested on: acetylcholine bromide-induced abdominal constriction; settings: mouse, in vivo

T2 sequence (P33535 whole entry): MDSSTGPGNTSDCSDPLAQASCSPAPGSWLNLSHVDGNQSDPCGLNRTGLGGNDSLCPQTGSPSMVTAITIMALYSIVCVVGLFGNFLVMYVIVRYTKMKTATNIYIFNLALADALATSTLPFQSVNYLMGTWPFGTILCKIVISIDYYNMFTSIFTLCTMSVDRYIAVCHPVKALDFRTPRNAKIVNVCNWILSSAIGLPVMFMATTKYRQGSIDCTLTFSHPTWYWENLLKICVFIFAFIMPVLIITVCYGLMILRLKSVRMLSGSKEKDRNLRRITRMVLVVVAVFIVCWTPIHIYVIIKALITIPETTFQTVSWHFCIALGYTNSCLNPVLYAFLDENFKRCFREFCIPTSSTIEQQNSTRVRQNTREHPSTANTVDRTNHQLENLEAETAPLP
T1 sequence (P33533 whole entry): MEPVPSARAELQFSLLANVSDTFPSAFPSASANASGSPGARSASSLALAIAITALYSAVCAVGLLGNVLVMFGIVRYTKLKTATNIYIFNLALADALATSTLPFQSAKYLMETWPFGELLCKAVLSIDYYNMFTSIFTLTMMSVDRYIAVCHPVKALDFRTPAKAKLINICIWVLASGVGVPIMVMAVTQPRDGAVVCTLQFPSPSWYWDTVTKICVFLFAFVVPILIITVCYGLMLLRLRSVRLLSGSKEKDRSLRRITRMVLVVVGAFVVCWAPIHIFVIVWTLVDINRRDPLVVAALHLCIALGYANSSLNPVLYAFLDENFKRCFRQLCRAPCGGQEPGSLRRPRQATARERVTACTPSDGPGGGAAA

Row | Compound | Ki (δ-opioid receptor) [µM] | Ki (μ-opioid receptor) [µM] | MAIT % Inhibition @150 μmol/kg [1] [%]
1 | CCCN1CCC(N(Cc2cccc(OC)c2)c2ccc(C(=O)N(CC)CC)cc2)CC1 [Compound 1, N,N-diethyl-4-[3-methoxybenzyl(1-propylpiperidin-4-yl)amino]benzamide] | 0.24 | 9.28 | 
2 | CCCN1CCC(N(Cc2cccc(O)c2)c2ccc(C(=O)N(CC)CC)cc2)CC1 [Compound 2, N,N-Diethyl-4-[3-hydroxybenzyl(1-propylpiperidin-4-yl)amino]benzamide] |  |  | 13.3
3 | CCCN1CCC(N(Cc2ccccc2O)c2ccc(C(=O)N(CC)CC)cc2)CC1 [Compound 5, N,N-Diethyl-4-[2-hydroxybenzyl(1-propylpiperidin-4-yl)amino]benzamide] | 3.47 | ≥ 10 | 
4 | CCCN1CCC(N(Cc2ccccc2)c2ccc(C(=O)N(CC)CC)cc2)CC1 [Compound 7, N,N-Diethyl-4-[benzyl(1-propylpiperidin-4-yl)amino]benzamide] |  |  | 100
5 | CCN(CC)C(=O)c1ccc(N(Cc2ccccc2)C2CCNCC2)cc1 [Compound 8, N,N-Diethyl-4-[benzyl(piperidin-4-yl)amino]benzamide] |  |  | 33.3
6 | C=CCN1CCC(N(Cc2ccccc2)c2ccc(C(=O)N(CC)CC)cc2)CC1 [Compound 9, N,N-Diethyl-4-[benzyl(1-allylpiperidin-4-yl)amino]benzamide] |  |  | 84.6
7 | CCN(CC)C(=O)c1ccc(N(Cc2ccccc2)C2CCN(C(C)C)CC2)cc1 [Compound 10, N,N-Diethyl-4-[benzyl(1-isopropylpiperidin-4-yl)amino]benzamide] | 0.585 | 3.79 | 
8 | CCN(CC)C(=O)c1ccc(N(Cc2ccccc2)C2CCN(CCCN(C)C)CC2)cc1 [Compound 11, N,N-Diethyl-4-[benzyl(1-[3-dimethylaminopropyl]piperidin-4-yl)amino]benzamide] | 1.77 | ≥ 10 | 
